Reference: US20260201008A1, “SECRETIN-DERIVED GLP1R SELECTIVE AGONISTS” (GUBRA A/S, priority 2023, published 2026)
Like-named read-outs stand apart in the source and are kept apart here. Numbered stars: 1 amine (or outer) side, 2 acyl side, 3 side chain; on linkers, the order of the positions; unused ones are H or OH. Square brackets hold non-standard residues; d marks the D form. Side chains are listed from the residue outwards. Peptide text beside a SMILES is read from it. * marks the point of attachment. C20 diacid = O=C(O)CCCCCCCCCCCCCCCCCCC(=O)*; γGlu = O=C(O)[C@H](CCC(=O)[*:2])N[*:1]; AEEA = NCCOCCOCC(=O)O; Aib = CC(C)(N)C(=O)O

Legend:
SCTR = SCTR (Homo sapiens, UniProt P47872); experiment: hSCTR potency, cAMP accumulation in CHO-K1 cells stably overexpressing hSCTR; type: cell-based; parameters: alternatively Euroscreen ES-712-AF; FAST-0161L; host or cells: CHO-K1; settings: cAMP accumulation
Chain of SCTR (P47872 23-440): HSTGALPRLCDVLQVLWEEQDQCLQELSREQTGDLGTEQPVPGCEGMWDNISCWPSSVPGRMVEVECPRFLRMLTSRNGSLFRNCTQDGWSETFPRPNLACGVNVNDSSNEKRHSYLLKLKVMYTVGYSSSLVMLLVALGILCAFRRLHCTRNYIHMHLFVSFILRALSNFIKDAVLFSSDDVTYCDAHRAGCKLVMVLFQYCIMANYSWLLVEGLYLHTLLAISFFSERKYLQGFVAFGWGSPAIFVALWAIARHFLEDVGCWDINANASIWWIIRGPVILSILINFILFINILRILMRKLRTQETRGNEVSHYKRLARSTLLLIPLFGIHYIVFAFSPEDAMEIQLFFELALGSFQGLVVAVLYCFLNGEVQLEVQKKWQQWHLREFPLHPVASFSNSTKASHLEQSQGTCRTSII
Outline: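 CHO-K1/hSCTR cells; DPBS + 0.05% casein + 0.5 mM IBMX; 30 min RT stimulation; cAMP by TR-FRET read at 1 h. Crude peptides: 5-point 10-fold dilutions, n=1. Purified: 11-point 3-fold dilutions, n=2. EC50 via variable-slope fit.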

[1] = Turbidity of crude library peptides (absorbance at 600 nm); type: physicochemical; settings: Physical stability of peptides
Outline: (§1)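 Fibril formation is scored as average ThT fluorescence from duplicate samples monitored for 72 h at 40° C with shaking stress. Turbidity is the absorbance at 600 nm taken before heating. Peptide concentration was 267 μM at pH 4.0 or pH 7.0.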

GLP1R = GLP1R (Homo sapiens, UniProt P43220); experiment: hGLP1R potency, cAMP accumulation in CHO-K1 cells stably overexpressing hGLP1R; type: cell-based; parameters: host or cells: CHO-K1; settings: for Selectivity: SCTR EC50/GLP1R EC50 ratio; for EC50: cAMP accumulation; for SCTR EC50/GLP1R EC50 ratio: cAMP accumulation in CHO-K1 cells
Chain of GLP1R (P43220 24-463): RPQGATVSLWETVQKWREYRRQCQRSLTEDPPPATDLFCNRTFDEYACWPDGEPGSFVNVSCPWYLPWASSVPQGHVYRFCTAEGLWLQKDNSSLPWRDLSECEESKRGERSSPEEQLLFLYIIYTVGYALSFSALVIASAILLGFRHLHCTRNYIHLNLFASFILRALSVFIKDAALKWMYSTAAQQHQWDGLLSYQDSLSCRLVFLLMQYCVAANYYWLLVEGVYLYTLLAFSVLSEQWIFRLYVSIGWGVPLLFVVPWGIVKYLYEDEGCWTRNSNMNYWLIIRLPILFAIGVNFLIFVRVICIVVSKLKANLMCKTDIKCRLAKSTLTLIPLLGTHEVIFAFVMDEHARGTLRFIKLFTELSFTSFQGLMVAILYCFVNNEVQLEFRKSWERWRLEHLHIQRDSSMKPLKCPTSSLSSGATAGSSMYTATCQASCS
Outline: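 TR-FRET cAMP read-out, one hour after reagent addition, following 30 min compound exposure at RT in DPBS/0.05% casein/0.5 mM IBMX. Crude peptides: 5 points, 10-fold steps, n=1. Purified peptides: 11 points, 3-fold steps, n=2. EC50 fitted with a variable-slope sigmoid.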

[2] = Fibril formation of crude library peptides (Thioflavin T); type: physicochemical; parameters: key: average ThT fluorescence emission at 480 nm (ex 450 nm), raw units; settings: Physical stability of peptides
Outline: as §1

[3] = CHO-K1 cells overexpressing hSCTR, read-out: pEC50 hSCTR (converted)
[4] = CHO-K1 cells overexpressing hGLP1R, read-out: pEC50 hGLPR1 (converted)

EC50 (SCTR; [3]) | Turbidity (pH 7) [1] | Selectivity (GLP1R) | EC50 (GLP1R; [4]) | Fibril formation [2] | EC50 (SCTR; CHO-K1 cells overexpressing hSCTR, read-out: hSCTR pEC50 (converted)) | EC50 (GLP1R; CHO-K1 cells overexpressing hGLP1R, read-out: hGLP1R pEC50 (converted)) | SCTR EC50/GLP1R EC50 ratio (GLP1R; selectivity for hGLP1R over hSCTR) | EC50 (SCTR; CHO-K1 cells stably overexpressing hSCTR, read-out: hSCTR potency (pEC50) (converted)) | EC50 (GLP1R; CHO-K1 cells stably overexpressing hGLP1R, read-out: hGLP1R potency (pEC50) (converted)) | SCTR EC50/GLP1R EC50 ratio (GLP1R; selectivity ratio, hSCTR vs hGLP1R) | Compound
398 nM | 0.10 | 22019 | 0.02 nM | 33108 |  |  |  |  |  |  | CC(C)C[C@H](NC(=O)[C@H](Cc1ccccc1)NC(=O)[C@H](CCCNC(=N)N)NC(=O)[C@H](CCC(N)=O)NC(=O)[C@H](CO)NC(=O)[C@H](C)NC(=O)[C@H](C)NC(=O)[C@@H](NC(=O)[C@H](CCC(=O)O)NC(=O)[C@H](CCCCNC(=O)COCCOCCNC(=O)COCCOCCNC(=O)CC[C@H](NC(=O)CCCCCCCCCCCCCCCCCCC(=O)O)C(=O)O)NC(=O)[C@H](CC(C)C)NC(=O)[C@@H](NC(=O)[C@H](CO)NC(=O)[C@@H](NC(=O)[C@H](CC(=O)O)NC(=O)[C@H](CO)NC(=O)[C@@H](NC(=O)[C@H](Cc1ccccc1)NC(=O)[C@@H](NC(=O)CNC(=O)[C@H](CCC(=O)O)NC(=O)C(C)(C)NC(=O)[C@@H](N)Cc1c[nH]cn1)[C@@H](C)O)[C@@H](C)O)C(C)C)[C@@H](C)O)[C@@H](C)O)C(=O)N[C@@H](CCC(=O)O)C(=O)N[C@@H](Cc1c[nH]cn1)C(=O)N[C@@H](CC(C)C)C(=O)N[C@H](C(N)=O)C(C)C [compound 20] (H-H[Aib]EGTFTSDVSTLK([AEEA-AEEA-γGlu-C20 diacid])ETAASQRFLEHLV-NH2)
 | 0.08 |  |  | 10901 | 1000 nM | 0.01 nM | 111764 |  |  |  | CC(C)C[C@H](NC(=O)[C@H](Cc1ccccc1)NC(=O)[C@H](CCCNC(=N)N)NC(=O)[C@H](CCC(N)=O)NC(=O)[C@H](CCC(N)=O)NC(=O)[C@H](C)NC(=O)[C@H](C)NC(=O)C(C)(C)NC(=O)[C@H](CCC(=O)O)NC(=O)[C@H](CCCCNC(=O)COCCOCCNC(=O)COCCOCCNC(=O)CC[C@H](NC(=O)CCCCCCCCCCCCCCCCCCC(=O)O)C(=O)O)NC(=O)[C@H](CC(C)C)NC(=O)[C@H](Cc1ccc(O)cc1)NC(=O)[C@H](CO)NC(=O)[C@@H](NC(=O)[C@H](CC(=O)O)NC(=O)[C@H](CO)NC(=O)[C@@H](NC(=O)[C@H](Cc1ccccc1)NC(=O)[C@@H](NC(=O)CNC(=O)[C@H](CCC(=O)O)NC(=O)C(C)(C)NC(=O)[C@@H](N)Cc1c[nH]cn1)[C@@H](C)O)[C@@H](C)O)C(C)C)C(=O)N[C@@H](CCC(=O)O)C(=O)N[C@@H](Cc1c[nH]cn1)C(=O)N[C@@H](CC(C)C)C(=O)N[C@H](C(N)=O)C(C)C [compound 94] (H-H[Aib]EGTFTSDVSYLK([AEEA-AEEA-γGlu-C20 diacid])E[Aib]AAQQRFLEHLV-NH2)
398 nM | 0.08 | 20678 | 0.02 nM | 16453 |  |  |  |  |  |  | CC(C)C[C@H](NC(=O)[C@H](Cc1ccccc1)NC(=O)[C@H](CCCNC(=N)N)NC(=O)[C@H](CCC(N)=O)NC(=O)[C@H](CCC(=O)O)NC(=O)[C@H](C)NC(=O)[C@H](C)NC(=O)[C@H](CCC(=O)O)NC(=O)[C@H](CCC(=O)O)NC(=O)[C@H](CCCCNC(=O)COCCOCCNC(=O)COCCOCCNC(=O)CC[C@H](NC(=O)CCCCCCCCCCCCCCCCCCC(=O)O)C(=O)O)NC(=O)[C@H](CC(C)C)NC(=O)[C@H](CCCNC(=N)N)NC(=O)[C@H](CO)NC(=O)[C@@H](NC(=O)[C@H](CC(=O)O)NC(=O)[C@H](CO)NC(=O)[C@@H](NC(=O)[C@H](Cc1ccccc1)NC(=O)[C@@H](NC(=O)CNC(=O)[C@H](CCC(=O)O)NC(=O)C(C)(C)NC(=O)[C@@H](N)Cc1c[nH]cn1)[C@@H](C)O)[C@@H](C)O)C(C)C)C(=O)N[C@@H](CCC(=O)O)C(=O)N[C@@H](Cc1c[nH]cn1)C(=O)N[C@@H](CC(C)C)C(=O)N[C@H](C(N)=O)C(C)C [compound 22] (H-H[Aib]EGTFTSDVSRLK([AEEA-AEEA-γGlu-C20 diacid])EEAAEQRFLEHLV-NH2)
3980 nM | 0.08 | 72127 | 0.0501 nM | 8551 |  |  |  |  |  |  | CC(C)C[C@H](NC(=O)[C@H](CCC(=O)O)NC(=O)[C@H](CCCCNC(=O)COCCOCCNC(=O)COCCOCCNC(=O)CC[C@H](NC(=O)CCCCCCCCCCCCCCCCCCC(=O)O)C(=O)O)NC(=O)[C@H](CC(C)C)NC(=O)[C@@H](NC(=O)[C@H](CO)NC(=O)[C@@H](NC(=O)[C@H](CC(=O)O)NC(=O)[C@H](CO)NC(=O)[C@@H](NC(=O)[C@H](Cc1ccccc1)NC(=O)[C@@H](NC(=O)CNC(=O)[C@H](CCC(=O)O)NC(=O)C(C)(C)NC(=O)[C@@H](N)Cc1c[nH]cn1)[C@@H](C)O)[C@@H](C)O)C(C)C)[C@@H](C)O)C(=O)N[C@@H](C)C(=O)N[C@@H](C)C(=O)N[C@@H](CCC(=O)O)C(=O)N[C@@H](CCC(N)=O)C(=O)N[C@@H](CCCNC(=N)N)C(=O)N[C@@H](Cc1ccccc1)C(=O)N[C@@H](CC(C)C)C(=O)N[C@@H](CCC(=O)O)C(=O)N[C@@H](Cc1c[nH]cn1)C(=O)N[C@@H](CC(C)C)C(=O)N[C@H](C(N)=O)C(C)C [compound 78] (H-H[Aib]EGTFTSDVSTLK([AEEA-AEEA-γGlu-C20 diacid])ELAAEQRFLEHLV-NH2)
 | 1.04 |  |  | 48618 |  |  |  | 6.31 nM | 0.0126 nM | 478 | CC[C@H](C)[C@H](NC(=O)[C@H](Cc1ccccc1)NC(=O)[C@H](CCCNC(=N)N)NC(=O)[C@H](CCC(N)=O)NC(=O)[C@H](CC(C)C)NC(=O)[C@H](C)NC(=O)[C@H](C)NC(=O)CNC(=O)[C@H](CCC(=O)O)NC(=O)[C@H](CC(C)C)NC(=O)[C@H](CC(C)C)NC(=O)[C@H](CCCNC(=N)N)NC(=O)[C@H](CO)NC(=O)[C@H](Cc1c[nH]c2ccccc12)NC(=O)[C@H](CC(=O)O)NC(=O)[C@H](CO)NC(=O)[C@@H](NC(=O)[C@H](Cc1ccccc1)NC(=O)[C@@H](NC(=O)CNC(=O)[C@H](CCC(=O)O)NC(=O)C(C)(C)NC(=O)[C@@H](N)Cc1c[nH]cn1)[C@@H](C)O)[C@@H](C)O)C(=O)N[C@@H](CCC(N)=O)C(=O)N[C@@H](Cc1c[nH]c2ccccc12)C(=O)N[C@@H](CC(C)C)C(=O)N[C@H](C(N)=O)C(C)C [compound 186] (H-H[Aib]EGTFTSDWSRLLEGAALQRFIQWLV-NH2)
158 nM | 0.09 | 16315 | 0.01 nM | 6162 |  |  |  |  |  |  | CC(C)C[C@H](NC(=O)[C@H](Cc1ccccc1)NC(=O)[C@H](CCCNC(=N)N)NC(=O)[C@H](CCC(N)=O)NC(=O)[C@@H](NC(=O)[C@H](C)NC(=O)[C@H](C)NC(=O)[C@H](CCC(=O)O)NC(=O)[C@H](CCC(=O)O)NC(=O)[C@H](CCCCNC(=O)COCCOCCNC(=O)COCCOCCNC(=O)CC[C@H](NC(=O)CCCCCCCCCCCCCCCCCCC(=O)O)C(=O)O)NC(=O)[C@H](CC(C)C)NC(=O)[C@H](CCC(=O)O)NC(=O)[C@H](CO)NC(=O)[C@@H](NC(=O)[C@H](CC(=O)O)NC(=O)[C@H](CO)NC(=O)[C@@H](NC(=O)[C@H](Cc1ccccc1)NC(=O)[C@@H](NC(=O)CNC(=O)[C@H](CCC(=O)O)NC(=O)C(C)(C)NC(=O)[C@@H](N)Cc1c[nH]cn1)[C@@H](C)O)[C@@H](C)O)C(C)C)[C@@H](C)O)C(=O)N[C@@H](CCC(=O)O)C(=O)N[C@@H](Cc1c[nH]cn1)C(=O)N[C@@H](CC(C)C)C(=O)N[C@H](C(N)=O)C(C)C [compound 55] (H-H[Aib]EGTFTSDVSELK([AEEA-AEEA-γGlu-C20 diacid])EEAATQRFLEHLV-NH2)
79.4 nM | 0.09 | 6907 | 0.0126 nM | 14563 |  |  |  |  |  |  | CC(C)C[C@H](NC(=O)[C@H](Cc1ccccc1)NC(=O)[C@H](CCCNC(=N)N)NC(=O)[C@H](CCC(N)=O)NC(=O)[C@H](CCC(N)=O)NC(=O)[C@H](C)NC(=O)[C@H](C)NC(=O)C(C)(C)NC(=O)[C@H](CCC(=O)O)NC(=O)[C@H](CCCCNC(=O)COCCOCCNC(=O)COCCOCCNC(=O)CC[C@H](NC(=O)CCCCCCCCCCCCCCCCCCC(=O)O)C(=O)O)NC(=O)[C@H](CC(C)C)NC(=O)[C@H](CCC(=O)O)NC(=O)[C@H](CO)NC(=O)[C@@H](NC(=O)[C@H](CC(=O)O)NC(=O)[C@H](CO)NC(=O)[C@@H](NC(=O)[C@H](Cc1ccccc1)NC(=O)[C@@H](NC(=O)CNC(=O)[C@H](CCC(=O)O)NC(=O)C(C)(C)NC(=O)[C@@H](N)Cc1c[nH]cn1)[C@@H](C)O)[C@@H](C)O)C(C)C)C(=O)N[C@@H](CCC(=O)O)C(=O)N[C@@H](Cc1c[nH]cn1)C(=O)N[C@@H](CC(C)C)C(=O)N[C@H](C(N)=O)C(C)C [compound 5] (H-H[Aib]EGTFTSDVSELK([AEEA-AEEA-γGlu-C20 diacid])E[Aib]AAQQRFLEHLV-NH2)
